{"source": "PubChem BioAssay AID2060901", "about": "(Molecular Pharmacology Branch, DTP, NCI, 2025)", "tested_on": "422866-222-R5-J1-PDC complex spheroids viability", "test": "Anticancer human tumor 422866-222-R5-J1-PDC patient-derived pancreatic adenocarcinoma cell line growth inhibition [RAS]", "details": "for pIC50: curve of first compound; for viability, T/C: stronger effect = lower value", "in_short": "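Tumour cells grown as complex spheroids with HUVEC endothelial cells and mesenchymal stem cells, treated with RAS pathway inhibitor combinations. Each agent spans half-log steps from near clinical Cmax, or 10 microM where Cmax is unknown.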", "note": "pIC50: −log10 of the molar value.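 Also: spheroids exposed to compounds for 7 days.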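 For viability, T/C in this document: 100% = DMSO vehicle control viability.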", "data": [{"smiles": "CCc1c2c(nc3ccc(O)cc13)-c1cc3c(c(=O)n1C2)COC(=O)[C@]3(O)CC", "note": "+ C#Cc1c(F)ccc2cc(O)cc(-c3ncc4c(N5CC6CCC(C5)N6)nc(OCC56CCCN5CC(F)C6)nc4c3F)c12", "values": [{"measurement": "pIC50", "setting": "second compound 0.0316 µM", "result": 8.55}, {"measurement": "pIC50", "setting": "second compound 0.1 µM", "result": 8.56}, {"measurement": "pIC50", "setting": "second compound 0.316 µM", "result": 7.02}, {"measurement": "pIC50", "setting": "second compound 1 µM", "result": "> 9.02"}, {"measurement": "pIC50", "setting": "second compound 3.16 µM", "result": "> 9.02"}, {"measurement": "pIC50", "setting": "second compound 10 µM", "result": "> 9.02"}, {"measurement": "viability, T/C", "setting": "second compound 0.0316 µM, first compound 0.000949 µM", "result": 80.6, "unit": "%"}, {"measurement": "viability, T/C", "setting": "second compound 0.0316 µM, first compound 0.003 µM", "result": 49.4, "unit": "%"}, {"measurement": "viability, T/C", "setting": "second compound 0.0316 µM, first compound 0.00949 µM", "result": 39.9, "unit": "%"}, {"measurement": "viability, T/C", "setting": "second compound 0.0316 µM, first compound 0.03 µM", "result": 41.9, "unit": "%"}, {"measurement": "viability, T/C", "setting": "second compound 0.0316 µM, first compound 0.0949 µM", "result": 48.5, "unit": "%"}, {"measurement": "viability, T/C", "setting": "second compound 0.0316 µM, first compound 0.3 µM", "result": 45.5, "unit": "%"}, {"measurement": "viability, T/C", "setting": "second compound 0.1 µM, first compound 0.000949 µM", "result": 75.2, "unit": "%"}, {"measurement": "viability, T/C", "setting": "second compound 0.1 µM, first compound 0.003 µM", "result": 49.4, "unit": "%"}, {"measurement": "viability, T/C", "setting": "second compound 0.1 µM, first compound 0.00949 µM", "result": 35.2, "unit": "%"}, {"measurement": "viability, T/C", "setting": "second compound 0.1 µM, first compound 0.03 µM", "result": 49.8, "unit": "%"}, {"measurement": "viability, T/C", "setting": "second compound 0.1 µM, first compound 0.0949 µM", "result": 58.4, "unit": "%"}, {"measurement": "viability, T/C", "setting": "second compound 0.1 µM, first compound 0.3 µM", "result": 36.1, "unit": "%"}, {"measurement": "viability, T/C", "setting": "second compound 0.316 µM, first compound 0.000949 µM", "result": 65.4, "unit": "%"}, {"measurement": "viability, T/C", "setting": "second compound 0.316 µM, first compound 0.003 µM", "result": 36.4, "unit": "%"}, {"measurement": "viability, T/C", "setting": "second compound 0.316 µM, first compound 0.00949 µM", "result": 49.8, "unit": "%"}, {"measurement": "viability, T/C", "setting": "second compound 0.316 µM, first compound 0.03 µM", "result": 56.5, "unit": "%"}, {"measurement": "viability, T/C", "setting": "second compound 0.316 µM, first compound 0.0949 µM", "result": 49.2, "unit": "%"}, {"measurement": "viability, T/C", "setting": "second compound 0.316 µM, first compound 0.3 µM", "result": 34.7, "unit": "%"}, {"measurement": "viability, T/C", "setting": "second compound 1 µM, first compound 0.000949 µM", "result": 48.6, "unit": "%"}, {"measurement": "viability, T/C", "setting": "second compound 1 µM, first compound 0.003 µM", "result": 35.9, "unit": "%"}, {"measurement": "viability, T/C", "setting": "second compound 1 µM, first compound 0.00949 µM", "result": 35.4, "unit": "%"}, {"measurement": "viability, T/C", "setting": "second compound 1 µM, first compound 0.03 µM", "result": 38.2, "unit": "%"}, {"measurement": "viability, T/C", "setting": "second compound 1 µM, first compound 0.0949 µM", "result": 53.3, "unit": "%"}, {"measurement": "viability, T/C", "setting": "second compound 1 µM, first compound 0.3 µM", "result": 31.2, "unit": "%"}, {"measurement": "viability, T/C", "setting": "second compound 3.16 µM, first compound 0.000949 µM", "result": 26.3, "unit": "%"}, {"measurement": "viability, T/C", "setting": "second compound 3.16 µM, first compound 0.003 µM", "result": 28.7, "unit": "%"}, {"measurement": "viability, T/C", "setting": "second compound 3.16 µM, first compound 0.00949 µM", "result": 22.4, "unit": "%"}, {"measurement": "viability, T/C", "setting": "second compound 3.16 µM, first compound 0.03 µM", "result": 22.9, "unit": "%"}, {"measurement": "viability, T/C", "setting": "second compound 3.16 µM, first compound 0.0949 µM", "result": 25.6, "unit": "%"}, {"measurement": "viability, T/C", "setting": "second compound 3.16 µM, first compound 0.3 µM", "result": 25.1, "unit": "%"}, {"measurement": "viability, T/C", "setting": "second compound 10 µM, first compound 0.000949 µM", "result": 23, "unit": "%"}, {"measurement": "viability, T/C", "setting": "second compound 10 µM, first compound 0.003 µM", "result": 21, "unit": "%"}, {"measurement": "viability, T/C", "setting": "second compound 10 µM, first compound 0.00949 µM", "result": 20.7, "unit": "%"}, {"measurement": "viability, T/C", "setting": "second compound 10 µM, first compound 0.03 µM", "result": 18.1, "unit": "%"}, {"measurement": "viability, T/C", "setting": "second compound 10 µM, first compound 0.0949 µM", "result": 19.5, "unit": "%"}, {"measurement": "viability, T/C", "setting": "second compound 10 µM, first compound 0.3 µM", "result": 13.5, "unit": "%"}]}, {"smiles": "C=CC(=O)Nc1cc(Nc2nccc(-c3cn(C)c4ccccc34)n2)c(OC)cc1N(C)CCN(C)C", "note": "+ C=CC(=O)N1CCN(c2nc(OCC3CCCN3C)nc3c(F)c(-c4nc(N)cc(C)c4C(F)(F)F)c(Cl)cc23)C(C)C1", "values": [{"measurement": "pIC50", "setting": "second compound 0.00316 µM", "result": "> 8.50"}, {"measurement": "pIC50", "setting": "second compound 0.01 µM", "result": "> 8.50"}, {"measurement": "pIC50", "setting": "second compound 0.0316 µM", "result": "> 8.50"}, {"measurement": "pIC50", "setting": "second compound 0.1 µM", "result": "> 8.50"}, {"measurement": "pIC50", "setting": "second compound 0.316 µM", "result": "> 8.50"}, {"measurement": "pIC50", "setting": "second compound 1 µM", "result": "> 8.50"}, {"measurement": "viability, T/C", "setting": "second compound 0.00316 µM, first compound 0.00316 µM", "result": 26.3, "unit": "%"}, {"measurement": "viability, T/C", "setting": "second compound 0.00316 µM, first compound 0.01 µM", "result": 28.2, "unit": "%"}, {"measurement": "viability, T/C", "setting": "second compound 0.00316 µM, first compound 0.0316 µM", "result": 29, "unit": "%"}, {"measurement": "viability, T/C", "setting": "second compound 0.00316 µM, first compound 0.1 µM", "result": 28, "unit": "%"}, {"measurement": "viability, T/C", "setting": "second compound 0.00316 µM, first compound 0.316 µM", "result": 18.5, "unit": "%"}, {"measurement": "viability, T/C", "setting": "second compound 0.00316 µM, first compound 1 µM", "result": 12.4, "unit": "%"}, {"measurement": "viability, T/C", "setting": "second compound 0.01 µM, first compound 0.00316 µM", "result": 34.1, "unit": "%"}, {"measurement": "viability, T/C", "setting": "second compound 0.01 µM, first compound 0.01 µM", "result": 21.1, "unit": "%"}, {"measurement": "viability, T/C", "setting": "second compound 0.01 µM, first compound 0.0316 µM", "result": 20.5, "unit": "%"}, {"measurement": "viability, T/C", "setting": "second compound 0.01 µM, first compound 0.1 µM", "result": 19.8, "unit": "%"}, {"measurement": "viability, T/C", "setting": "second compound 0.01 µM, first compound 0.316 µM", "result": 17.3, "unit": "%"}, {"measurement": "viability, T/C", "setting": "second compound 0.01 µM, first compound 1 µM", "result": 12.3, "unit": "%"}, {"measurement": "viability, T/C", "setting": "second compound 0.0316 µM, first compound 0.00316 µM", "result": 33.4, "unit": "%"}, {"measurement": "viability, T/C", "setting": "second compound 0.0316 µM, first compound 0.01 µM", "result": 26.3, "unit": "%"}, {"measurement": "viability, T/C", "setting": "second compound 0.0316 µM, first compound 0.0316 µM", "result": 21.5, "unit": "%"}, {"measurement": "viability, T/C", "setting": "second compound 0.0316 µM, first compound 0.1 µM", "result": 16.5, "unit": "%"}, {"measurement": "viability, T/C", "setting": "second compound 0.0316 µM, first compound 0.316 µM", "result": 17, "unit": "%"}, {"measurement": "viability, T/C", "setting": "second compound 0.0316 µM, first compound 1 µM", "result": 12.2, "unit": "%"}, {"measurement": "viability, T/C", "setting": "second compound 0.1 µM, first compound 0.00316 µM", "result": 22.8, "unit": "%"}, {"measurement": "viability, T/C", "setting": "second compound 0.1 µM, first compound 0.01 µM", "result": 21.9, "unit": "%"}, {"measurement": "viability, T/C", "setting": "second compound 0.1 µM, first compound 0.0316 µM", "result": 17.3, "unit": "%"}, {"measurement": "viability, T/C", "setting": "second compound 0.1 µM, first compound 0.1 µM", "result": 17.6, "unit": "%"}, {"measurement": "viability, T/C", "setting": "second compound 0.1 µM, first compound 0.316 µM", "result": 16.6, "unit": "%"}, {"measurement": "viability, T/C", "setting": "second compound 0.1 µM, first compound 1 µM", "result": 11.9, "unit": "%"}, {"measurement": "viability, T/C", "setting": "second compound 0.316 µM, first compound 0.00316 µM", "result": 19.7, "unit": "%"}, {"measurement": "viability, T/C", "setting": "second compound 0.316 µM, first compound 0.01 µM", "result": 21.4, "unit": "%"}, {"measurement": "viability, T/C", "setting": "second compound 0.316 µM, first compound 0.0316 µM", "result": 20, "unit": "%"}, {"measurement": "viability, T/C", "setting": "second compound 0.316 µM, first compound 0.1 µM", "result": 21.8, "unit": "%"}, {"measurement": "viability, T/C", "setting": "second compound 0.316 µM, first compound 0.316 µM", "result": 18.1, "unit": "%"}, {"measurement": "viability, T/C", "setting": "second compound 0.316 µM, first compound 1 µM", "result": 14.2, "unit": "%"}, {"measurement": "viability, T/C", "setting": "second compound 1 µM, first compound 0.00316 µM", "result": 20.5, "unit": "%"}, {"measurement": "viability, T/C", "setting": "second compound 1 µM, first compound 0.01 µM", "result": 20.8, "unit": "%"}, {"measurement": "viability, T/C", "setting": "second compound 1 µM, first compound 0.0316 µM", "result": 22.7, "unit": "%"}, {"measurement": "viability, T/C", "setting": "second compound 1 µM, first compound 0.1 µM", "result": 20.9, "unit": "%"}, {"measurement": "viability, T/C", "setting": "second compound 1 µM, first compound 0.316 µM", "result": 18.6, "unit": "%"}, {"measurement": "viability, T/C", "setting": "second compound 1 µM, first compound 1 µM", "result": 12.4, "unit": "%"}]}]}
